This note sets out measurements from patent US20240050428A1 (Cullgen (Shanghai), Inc., priority 2020, published 2024).

Read-outs that look alike come from different tables or passages of the source. Where only a bound is given, the exact number is not on record here.

For experiment [1], the system named is MOLM-13 cells. The experiment is described as follows: Cell viability assay (CellTiter-Glo) in MOLM-13 cells, alone or with gilteritinib. The format is cell-based. The conditions noted are these: Homo sapiens, MOLM-13 cells, three days, CellTiter-Glo.
In experiment [2] the test system is MV4;11 cells. The experiment is described as follows: Cell viability assay (CellTiter-Glo) in MV4;11 cells, alone or with gilteritinib. The format is cell-based. The settings on record: Homo sapiens, MV4;11 cells, three days, CellTiter-Glo, read-out: MV4.
Setting [3] is: MOLM-13, 72 h, compound alone (without gilteritinib), read-out: MOLM-13 IC50.
Setting [4] is: MOLM-13, 72 h, with gilteritinib 20 nM, read-out: MOLM-13 IC50 gilteritinib.
The mark [5] stands for this setting: MV4-11, 72 h, compound alone (without gilteritinib), 11 IC50.
Where [6] appears, read: MV4-11, 72 h, with gilteritinib 10 nM, 11 IC50 gilteritinib.
The mark [7] stands for this setting: 72 h, compound alone (without gilteritinib), read-out: MOLM-13 IC50.
Where [8] appears, read: 72 h, with gilteritinib 20 nM, read-out: MOLM-13 IC50 gilteritinib.
[9] abbreviates: 72 h, compound alone (without gilteritinib), 11 IC50.
The mark [10] stands for this setting: 72 h, with gilteritinib 10 nM, 11 IC50 gilteritinib.

On to `O=C(CNc1cccc(N2CCC(n3cc(-c4cnc5ccccc5n4)cn3)CC2)c1)NCc1scc2c1CN(C1CCC(=O)NC1=O)C2=O` (centres unmarked) [GS-087, N-((5-(2,6-dioxopiperidin-3-yl)-4-oxo-5,6-dihydro-4H-thieno[3,4-c]pyrrol-1-yl)methyl)-2-((3-(4-(4-(quinoxalin-2-yl)-1H-pyrazol-1-yl)piperidin-1-yl)phenyl)amino)acetamide], for which the IC50 in experiment [1] (setting [3]), in experiment [1] (setting [4]), in experiment [2] (setting [5]) and in experiment [2] (setting [6]) was less than 10 nM throughout.
Consider `O=C1CCC(N2Cc3c(Nc4ccnc(NCCCN5CCC(n6cc(-c7cnc8ccccc8n7)cn6)CC5)n4)cccc3C2=O)C(=O)N1` (centres unmarked) [GS-088, 3-(1-Oxo-4-((2-((3-(4-(4-(quinoxalin-2-yl)-1H-pyrazol-1-yl)piperidin-1-yl)propyl)amino)pyrimidin-4-yl)amino)isoindolin-2-yl)piperidine-2,6-dione], for which the IC50 in experiment [1] (setting [3]), in experiment [1] (setting [4]), in experiment [2] (setting [5]) and in experiment [2] (setting [6]) was more than 1000 nM in each case.
Turning to `O=C(CC1CCC(N2CCC(n3cc(-c4cnc5ccccc5n4)cn3)CC2)CC1)NCc1ccc2c(c1)CN(C1CCC(=O)NC1=O)C2=O` (centres unmarked) [GS-089, N-((2-(2,6-dioxopiperidin-3-yl)-1-oxoisoindolin-5-yl)methyl)-2-(4-(4-(4-(quinoxalin-2-yl)-1H-pyrazol-1-yl)piperidin-1-yl)cyclohexyl)acetamide], the IC50 in experiment [1] (setting [3]), in experiment [1] (setting [4]), in experiment [2] (setting [5]) and in experiment [2] (setting [6]) was more than 1000 nM throughout.
`O=C1CCC(N2Cc3c(Nc4cccc(Nc5cccc(N6CCC(n7cc(-c8cnc9ccccc9n8)cn7)CC6)c5)n4)cccc3C2=O)C(=O)N1` (centres unmarked) [GS-090, 3-(1-Oxo-4-((6-((3-(4-(4-(quinoxalin-2-yl)-1H-pyrazol-1-yl)piperidin-1-yl)phenyl)amino)pyridin-2-yl)amino)isoindolin-2-yl)piperidine-2,6-dione]: the IC50 is 10 to 100 nM in experiment [1] (setting [3]), less than 10 nM in experiment [1] (setting [4]), 10 to 100 nM in experiment [2] (setting [5]) and less than 10 nM in experiment [2] (setting [6]).
For the compound `O=C1CCC(N2Cc3c(Nc4ccnc(NCC(=O)N5CCC(n6cc(-c7cnc8ccccc8n7)cn6)CC5)n4)cccc3C2=O)C(=O)N1` (centres unmarked) [GS-091, 3-(1-Oxo-4-((2-((2-oxo-2-(4-(4-(quinoxalin-2-yl)-1H-pyrazol-1-yl)piperidin-1-yl)ethyl)amino)pyrimidin-4-yl)amino)isoindolin-2-yl)piperidine-2,6-dione], the IC50 in experiment [1] (setting [3]), in experiment [1] (setting [4]), in experiment [2] (setting [5]) and in experiment [2] (setting [6]) was more than 1000 nM each time.
For the compound `O=C1CCC(N2Cc3c(Nc4ccnc(NC5CCC(N6CCC(n7cc(-c8cnc9ccccc9n8)cn7)CC6)C5)n4)cccc3C2=O)C(=O)N1` (centres unmarked) [GS-092, 3-(1-Oxo-4-((2-((3-(4-(4-(quinoxalin-2-yl)-1H-pyrazol-1-yl)piperidin-1-yl)cyclopentyl)amino)pyrimidin-4-yl)amino)isoindolin-2-yl)piperidine-2,6-dione], the IC50 in experiment [1] (setting [3]), in experiment [1] (setting [4]), in experiment [2] (setting [5]) and in experiment [2] (setting [6]) was more than 1000 nM throughout.
Consider `O=C1CCC(N2Cc3c(csc3CNC(=O)Nc3cccc(N4CCC(n5cc(-c6cnc7ccccc7n6)cn5)CC4)c3)C2=O)C(=O)N1` (centres unmarked) [GS-093, 1-((5-(2,6-Dioxopiperidin-3-yl)-4-oxo-5,6-dihydro-4H-thieno[3,4-c]pyrrol-1-yl)methyl)-3-(3-(4-(4-(quinoxalin-2-yl)-1H-pyrazol-1-yl)piperidin-1-yl)phenyl)urea], for which the IC50 in experiment [1] (setting [3]), in experiment [1] (setting [4]), in experiment [2] (setting [5]) and in experiment [2] (setting [6]) was less than 10 nM in each case.
On to `O=C1CCC(N2Cc3c(Nc4ccnc(Nc5cccc(N6CCC(N7CCCCC7)CC6)c5)n4)cccc3C2=O)C(=O)N1` (centres unmarked) [GS-094, 3-(4-((2-((3-([1,4′-Bipiperidin]-1′-yl)phenyl)amino)pyrimidin-4-yl)amino)-1-oxoisoindolin-2-yl)piperidine-2,6-dione], for which the IC50 in experiment [1] (setting [3]), in experiment [1] (setting [4]), in experiment [2] (setting [5]) and in experiment [2] (setting [6]) was more than 1000 nM throughout.
For the compound `O=C1CCC(N2Cc3ccc(CCCCCC(=O)N4CCC(c5ccccc5)CC4)cc3C2=O)C(=O)N1` (centres unmarked) [GS-095, 3-(1-Oxo-6-(6-oxo-6-(4-phenylpiperidin-1-yl)hexyl)isoindolin-2-yl)piperidine-2,6-dione], the IC50 was 100 to 1000 nM in experiment [1] (setting [7]), 10 to 100 nM in experiment [1] (setting [8]), 100 to 1000 nM in experiment [2] (setting [9]) and 10 to 100 nM in experiment [2] (setting [10]).
Take `O=C1CCC(N2Cc3ccc(CCCCCCC(=O)N4CCN(c5ccccn5)CC4)cc3C2=O)C(=O)N1` (centres unmarked) [GS-096, 3-(1-Oxo-6-(7-oxo-7-(4-(pyridin-2-yl)piperazin-1-yl)heptyl)isoindolin-2-yl)piperidine-2,6-dione]: the IC50 is 100 to 1000 nM in experiment [1] (setting [7]), less than 10 nM in experiment [1] (setting [8]), 10 to 100 nM in experiment [2] (setting [9]) and less than 10 nM in experiment [2] (setting [10]).
In the case of `O=C1CCC(N2Cc3ccc(CCCCCCC(=O)N4CCC(n5cc(-c6cnc7ccccc7n6)cn5)CC4)cc3C2=O)C(=O)N1` (centres unmarked) [GS-097, 3-(1-Oxo-6-(7-oxo-7-(4-(4-(quinoxalin-2-yl)-1H-pyrazol-1-yl)piperidin-1-yl)heptyl)isoindolin-2-yl)piperidine-2,6-dione], the IC50 in experiment [1] (setting [3]) is 10 to 100 nM; in experiment [1] (setting [4]) it was less than 10 nM; in experiment [2] (setting [5]), 10 to 100 nM; in experiment [2] (setting [6]), less than 10 nM.
`O=C1CCC(N2Cc3ccc(CCCCCCC(=O)N4CCC(n5cc(-c6ccc7ccccc7n6)cn5)CC4)cc3C2=O)C(=O)N1` (centres unmarked) [GS-098, 3-(1-Oxo-6-(7-oxo-7-(4-(4-(quinolin-2-yl)-1H-pyrazol-1-yl)piperidin-1-yl)heptyl)isoindolin-2-yl)piperidine-2,6-dione]: the IC50 was 100 to 1000 nM in experiment [1] (setting [3]), less than 10 nM in experiment [1] (setting [4]), 10 to 100 nM in experiment [2] (setting [5]) and 10 to 100 nM in experiment [2] (setting [6]).
Consider `O=C1CCC(N2Cc3ccc(CCCCCCC(=O)N4CCC(c5ccccc5)CC4)cc3C2=O)C(=O)N1` (centres unmarked) [GS-099, 3-(1-Oxo-6-(7-oxo-7-(4-phenylpiperidin-1-yl)heptyl)isoindolin-2-yl)piperidine-2,6-dione], for which the IC50 in experiment [1] (setting [7]) is 100 to 1000 nM; in experiment [1] (setting [8]) it was 10 to 100 nM; in experiment [2] (setting [9]) it was 100 to 1000 nM; in experiment [2] (setting [10]), 10 to 100 nM.
Regarding `O=C1CCC(N2C(=O)c3ccc(NCCC4CCC(n5cc(-c6cnc7ccccc7n6)cn5)CC4)cc3C2=O)C(=O)N1` (centres unmarked) [GS-100, 2-(2,6-Dioxopiperidin-3-yl)-5-((2-(4-(4-(quinoxalin-2-yl)-1H-pyrazol-1-yl)cyclohexyl)ethyl)amino)isoindoline-1,3-dione], the IC50 is more than 1000 nM in experiment [1] (setting [3]), 100 to 1000 nM in experiment [1] (setting [4]), more than 1000 nM in experiment [2] (setting [5]) and more than 1000 nM in experiment [2] (setting [6]).
Consider `O=C1CCC(N2Cc3ccc(CCCCCC(=O)N4CCC(n5cc(-c6cnc7ccccc7n6)cn5)CC4)cc3C2=O)C(=O)N1` (centres unmarked) [GS-101, 3-(1-Oxo-6-(6-oxo-6-(4-(4-(quinoxalin-2-yl)-1H-pyrazol-1-yl)piperidin-1-yl)hexyl)isoindolin-2-yl)piperidine-2,6-dione], for which the IC50 in experiment [1] (setting [3]) was 10 to 100 nM; in experiment [1] (setting [4]), less than 10 nM; in experiment [2] (setting [5]) it was less than 10 nM; in experiment [2] (setting [6]), less than 10 nM.
As to `O=C1CCC(N2Cc3ccc(CCCCCC(=O)N4CCC(n5cc(-c6ccc7ccccc7n6)cn5)CC4)cc3C2=O)C(=O)N1` (centres unmarked) [GS-102, 3-(1-Oxo-6-(6-oxo-6-(4-(4-(quinolin-2-yl)-1H-pyrazol-1-yl)piperidin-1-yl)hexyl)isoindolin-2-yl)piperidine-2,6-dione], the IC50 in experiment [1] (setting [3]) was 100 to 1000 nM; in experiment [1] (setting [4]) it was 10 to 100 nM; in experiment [2] (setting [5]), 10 to 100 nM; in experiment [2] (setting [6]), less than 10 nM.
As for `O=C1CCC(N2Cc3ccc(CCCCCC(=O)N4CCN(c5ccccn5)CC4)cc3C2=O)C(=O)N1` (centres unmarked) [GS-103, 3-(1-Oxo-6-(6-oxo-6-(4-(pyridin-2-yl)piperazin-1-yl)hexyl)isoindolin-2-yl)piperidine-2,6-dione], the IC50 in experiment [1] (setting [7]) was more than 1000 nM; in experiment [1] (setting [8]), 100 to 1000 nM; in experiment [2] (setting [9]), more than 1000 nM; in experiment [2] (setting [10]) it was 100 to 1000 nM.
As for `O=C1CCC(N2Cc3ccc(CCCCCC(=O)N4CCC(c5ccccn5)CC4)cc3C2=O)C(=O)N1` (centres unmarked) [GS-104, 3-(1-Oxo-6-(6-oxo-6-(4-(pyridin-2-yl)piperidin-1-yl)hexyl)isoindolin-2-yl)piperidine-2,6-dione], the IC50 is more than 1000 nM in experiment [1] (setting [3]), 100 to 1000 nM in experiment [1] (setting [4]), 100 to 1000 nM in experiment [2] (setting [5]) and 100 to 1000 nM in experiment [2] (setting [6]).
In the case of `O=C1CCC(N2Cc3ccc(CCCCCCCn4cc(-c5cnc6ccccc6n5)cn4)cc3C2=O)C(=O)N1` (centres unmarked) [GS-105, 3-(1-Oxo-6-(7-(4-(quinoxalin-2-yl)-1H-pyrazol-1-yl)heptyl)isoindolin-2-yl)piperidine-2,6-dione], the IC50 is 10 to 100 nM in experiment [1] (setting [3]), less than 10 nM in experiment [1] (setting [4]), 10 to 100 nM in experiment [2] (setting [5]) and 10 to 100 nM in experiment [2] (setting [6]).
In the case of `O=C1CCC(N2Cc3ccc(CCCCCCn4cc(-c5cnc6ccccc6n5)cn4)cc3C2=O)C(=O)N1` (centres unmarked) [GS-106, 3-(1-Oxo-6-(6-(4-(quinoxalin-2-yl)-1H-pyrazol-1-yl)hexyl)isoindolin-2-yl)piperidine-2,6-dione], the IC50 in experiment [1] (setting [3]) was more than 1000 nM; in experiment [1] (setting [4]), 10 to 100 nM; in experiment [2] (setting [5]), 100 to 1000 nM; in experiment [2] (setting [6]) it was 10 to 100 nM.
